# Test results published in patent US20230085307A1, “PYRIDAZINONE COMPOUND AND HERBICIDE” (NISSAN CHEMICAL CORPORATION, priority 2019, published 2023).
# Experiments:
# southern crabgrass [1] = experiment: Test Example 5: herbicidal effect by foliage application, plastic box (Table 20, symbol F); type: in vivo, southern crabgrass (Digitaria ciliaris); settings: foliage application, AAH 320 g/ha, three weeks after application
# Summary of the method: (§1)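 Post-emergence foliar test in sterilized diluvial soil. Compound applied as water-diluted emulsion at a predetermined rate to 14-day-old plants; evaluation at three weeks.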
# soybean = experiment: Test Example 5: effect on crop by foliage application, plastic box (Table 20, symbol d); type: in vivo; settings: AAH 320 g/ha, three weeks after application
# Excerpt: (§2) [Test Example 5] Herbicidal Effect Test by Foliage Application
# (§3) Sterilized diluvial soil was placed in a plastic box having a length of 21 cm, a width of 13 cm, and a depth of 7 cm. The seeds of each of southern crabgrass, green foxtail, barnyard grass, wild oat, blackgrass, Italian ryegrass, windgrass, velvetleaf, redroot pigweed, lambsquarters, chickweed, false cleavers, persian speedwell, corn, soybean, rice, wheat, beet, and rapeseed were sowed in a spot-like manner and covered with the soil having a thickness of about 1.5 cm. Thereafter, the plants were grown in a greenhouse at 25° C. to 30° C. After 14-day growth of the plants, the emulsion agent of the compound of the present invention prepared according to Formulation Example 2 was diluted with water so as to achieve a predetermined herbicide amount, and the diluted emulsion agent was uniformly applied to a foliage part with a small-sized spray. Three weeks after the herbicide application, the effect of the herbicide on each plant was evaluated according to the criteria of Test Example 1.
# directly sowed rice = experiment: Test Example 3: effect on crop by foliage application, Wagner pot (Table 18, symbol b); type: in vivo; settings: 320 g/ha
# Summary of the method: (§4)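 Plants were sown in alluvial soil held under 0.1–0.5 cm standing water and grown 14 days in a greenhouse at 25–30 °C. An emulsifiable formulation, water-diluted to the set dose, was then sprayed onto the foliage, and effects were scored three weeks later using previously defined criteria.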
# wild oat [2] = experiment: Test Example 4: herbicidal effect by soil treatment (Table 19, symbol I); type: in vivo, wild oat (Avena fatua); settings: amount of applied herbicide 320 g/ha
# Summary of the method: (§5)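 Scoring uses the grading scale of an earlier test, three weeks post-application. Treatment consists of spraying a diluted emulsion formulation across the surface of sterilized diluvial soil in which seeds are buried near 1.5 cm deep; boxes are kept in a greenhouse between 25° C. and 30° C.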
# blackgrass = experiment: Test Example 5: herbicidal effect by foliage application, plastic box (Table 20, symbol J); type: in vivo, blackgrass (Alopecurus myosuroides); settings: foliage application, AAH 320 g/ha, three weeks after application
# Summary of the method: as §1
# wheat = experiment: Test Example 5: effect on crop by foliage application, plastic box (Table 20, symbol e); type: in vivo; settings: AAH 320 g/ha, three weeks after application
# Excerpt: as §2, §3
# chickweed = experiment: Test Example 4: herbicidal effect by soil treatment (Table 19, symbol P); type: in vivo, common chickweed (Stellaria media); settings: amount of applied herbicide 320 g/ha
# Summary of the method: as §5
# barnyard grass [3] = experiment: Test Example 4: herbicidal effect by soil treatment (Table 19, symbol H); type: in vivo, barnyard grass (Echinochloa crus-galli); settings: amount of applied herbicide 320 g/ha
# Summary of the method: as §5
# green foxtail = experiment: Test Example 4: herbicidal effect by soil treatment (Table 19, symbol G); type: in vivo, green foxtail (Setaria viridis); settings: amount of applied herbicide 320 g/ha
# Summary of the method: as §5
# Italian ryegrass = experiment: Test Example 5: herbicidal effect by foliage application, plastic box (Table 20, symbol K); type: in vivo, Italian ryegrass (Lolium multiflorum); settings: foliage application, AAH 320 g/ha, three weeks after application
# Summary of the method: as §1
# persian speedwell = experiment: Test Example 5: herbicidal effect by foliage application, plastic box (Table 20, symbol R); type: in vivo, Persian speedwell (Veronica persica); settings: foliage application, AAH 320 g/ha, three weeks after application
# Summary of the method: as §1
# velvetleaf [4] = experiment: Test Example 5: herbicidal effect by foliage application, plastic box (Table 20, symbol M); type: in vivo, velvetleaf (Abutilon theophrasti); settings: foliage application, AAH 320 g/ha, three weeks after application
# Summary of the method: as §1
# barnyard grass [5] = experiment: Test Example 3: herbicidal effect by foliage application, Wagner pot (Table 18, symbol H); type: in vivo, barnyard grass (Echinochloa crus-galli); settings: 320 g/ha
# Summary of the method: as §4
# corn = experiment: Test Example 4: effect on crop by soil treatment (Table 19, symbol c); type: in vivo; settings: amount of applied herbicide 320 g/ha
# Summary of the method: as §5
# wild oat [6] = experiment: Test Example 5: herbicidal effect by foliage application, plastic box (Table 20, symbol I); type: in vivo, wild oat (Avena fatua); settings: foliage application, AAH 320 g/ha, three weeks after application
# Summary of the method: as §1
# southern crabgrass [7] = experiment: Test Example 4: herbicidal effect by soil treatment (Table 19, symbol F); type: in vivo, southern crabgrass (Digitaria ciliaris); settings: amount of applied herbicide 320 g/ha
# Summary of the method: as §5
# lambsquarters = experiment: Test Example 4: herbicidal effect by soil treatment (Table 19, symbol O); type: in vivo, lambsquarters (Chenopodium album); settings: amount of applied herbicide 320 g/ha
# Summary of the method: as §5
# velvetleaf [8] = experiment: Test Example 4: herbicidal effect by soil treatment (Table 19, symbol M); type: in vivo, velvetleaf (Abutilon theophrasti); settings: amount of applied herbicide 320 g/ha
# Summary of the method: as §5
# windgrass = experiment: Test Example 5: herbicidal effect by foliage application, plastic box (Table 20, symbol L); type: in vivo, windgrass (Apera spica-venti); settings: foliage application, AAH 320 g/ha, three weeks after application
# Summary of the method: as §1
# redroot pigweed = experiment: Test Example 4: herbicidal effect by soil treatment (Table 19, symbol N); type: in vivo, redroot pigweed (Amaranthus retroflexus); settings: amount of applied herbicide 320 g/ha
# Summary of the method: as §5
compound,measurement,setting,value
"Cc1nn(C)c(=O)c(-c2c(-n3cc(Cl)cn3)sc3ccccc23)c1O [Compound No. 1-097, 5-hydroxy-2,6-dimethyl-4-(2-(4-chloro-1H-pyrazol-1-yl)benzo[b]thiophen-3-yl)pyridazin-3(2H)-one]","F: southern crabgrass, herbicidal effect",southern crabgrass [1],0 (Herbicidal rate of 5% or less (almost no effect))
same,"d: soybean, effect on crop",soybean,0 (Herbicidal rate of 5% or less (almost no effect))
same,"effect on crop b (directly sowed rice), rating 0-5",directly sowed rice,0 (Herbicidal rate of 5% or less (almost no effect))
same,"herbicidal effect rating, I: wild oat",wild oat [2],0 (Herbicidal rate of 5% or less (almost no effect))
same,"J: blackgrass, herbicidal effect",blackgrass,0 (Herbicidal rate of 5% or less (almost no effect))
same,"e: wheat, effect on crop",wheat,0 (Herbicidal rate of 5% or less (almost no effect))
same,"herbicidal effect rating, P: chickweed",chickweed,0 (Herbicidal rate of 5% or less (almost no effect))
same,"herbicidal effect rating, H: barnyard grass",barnyard grass [3],0 (Herbicidal rate of 5% or less (almost no effect))
same,"herbicidal effect rating, G: green foxtail",green foxtail,0 (Herbicidal rate of 5% or less (almost no effect))
same,"K: Italian ryegrass, herbicidal effect",Italian ryegrass,2 (Herbicidal rate of 20% or more and less than 40%)
same,"R: persian speedwell, herbicidal effect",persian speedwell,0 (Herbicidal rate of 5% or less (almost no effect))
same,"M: velvetleaf, herbicidal effect",velvetleaf [4],5 (Herbicidal rate of 90% or more (almost completely withered))
same,"herbicidal effect on H (barnyard grass), rating 0-5",barnyard grass [5],0 (Herbicidal rate of 5% or less (almost no effect))
same,"effect rating on crop, c: corn",corn,0 (Herbicidal rate of 5% or less (almost no effect))
same,"I: wild oat, herbicidal effect",wild oat [6],0 (Herbicidal rate of 5% or less (almost no effect))
same,"herbicidal effect rating, F: southern crabgrass",southern crabgrass [7],0 (Herbicidal rate of 5% or less (almost no effect))
same,"herbicidal effect rating, O: lambsquarters",lambsquarters,4 (Herbicidal rate of 70% or more and less than 90%)
same,"herbicidal effect rating, M: velvetleaf",velvetleaf [8],1 (Herbicidal rate of 5% or more and less than 20%)
same,"L: windgrass, herbicidal effect",windgrass,0 (Herbicidal rate of 5% or less (almost no effect))
same,"herbicidal effect rating, N: redroot pigweed",redroot pigweed,1 (Herbicidal rate of 5% or more and less than 20%)
